Consider four compounds from paper PMC3260273, “Allosteric Antagonism of Insect Odorant Receptor Ion Channels” (PLoS ONE, 2012).

The target of one assay is T1, HsOrco (Harpegnathos saltator, UniProt E2BJ30).
T1 construct: gene Orco
T1 sequence (E2BJ30 1-479): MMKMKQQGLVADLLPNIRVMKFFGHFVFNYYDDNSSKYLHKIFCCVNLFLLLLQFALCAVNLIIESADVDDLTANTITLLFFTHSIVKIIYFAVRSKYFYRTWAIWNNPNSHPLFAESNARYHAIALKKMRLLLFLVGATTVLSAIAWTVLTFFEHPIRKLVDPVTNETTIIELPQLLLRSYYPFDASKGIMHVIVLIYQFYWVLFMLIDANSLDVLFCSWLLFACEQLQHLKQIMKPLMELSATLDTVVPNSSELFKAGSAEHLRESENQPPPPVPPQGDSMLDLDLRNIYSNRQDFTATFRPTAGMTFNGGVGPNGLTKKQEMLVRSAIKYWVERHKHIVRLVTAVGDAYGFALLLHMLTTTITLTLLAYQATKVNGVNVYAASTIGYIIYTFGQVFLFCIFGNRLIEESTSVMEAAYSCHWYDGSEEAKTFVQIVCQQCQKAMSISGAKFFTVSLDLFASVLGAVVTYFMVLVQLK
Put plainly: whole-cell patch clamp, HEK cells, […] antagonist against […] VUAA1. The class given is cell-based.

The target of assay [1] is T2, AgOrco (Anopheles gambiae, UniProt Q7QCC7).
T2 construct: gene Orco
T2 sequence (Q7QCC7 1-478): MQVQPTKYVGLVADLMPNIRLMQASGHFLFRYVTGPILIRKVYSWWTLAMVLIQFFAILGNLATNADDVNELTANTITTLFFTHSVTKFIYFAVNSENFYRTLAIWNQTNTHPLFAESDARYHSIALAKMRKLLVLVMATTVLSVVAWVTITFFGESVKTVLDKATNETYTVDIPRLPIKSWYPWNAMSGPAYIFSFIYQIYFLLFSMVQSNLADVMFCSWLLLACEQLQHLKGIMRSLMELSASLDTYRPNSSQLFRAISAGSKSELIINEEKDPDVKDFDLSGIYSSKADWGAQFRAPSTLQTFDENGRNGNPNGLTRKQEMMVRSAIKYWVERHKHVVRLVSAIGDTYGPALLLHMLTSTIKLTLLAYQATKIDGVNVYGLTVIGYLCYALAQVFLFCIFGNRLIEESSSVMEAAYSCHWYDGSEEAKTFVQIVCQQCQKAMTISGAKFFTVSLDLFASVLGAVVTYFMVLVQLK
As to the kind of experiment: calcium mobilization in AgOrco-only HEK cells against VUAA1; whole-cell patch clamp. The class given is cell-based.

The target of assay [2] is T2, AgOrco. As to the kind of experiment: calcium mobilization in AgOrco-only HEK cells against VUAA1. The class given is cell-based. (In general: Calcium assays in cells follow changes in intracellular calcium, usually with a dye or a luminescent sensor.)
The target of a further assay is TRPV1 (Rattus norvegicus, UniProt O35433). Put plainly: whole-cell patch clamp in HEK cells, […] capsaicin. The class given is cell-based. (In general: The patch-clamp technique gives a direct electrical read-out from membranes.)
TRPV1, sequence (O35433 whole entry): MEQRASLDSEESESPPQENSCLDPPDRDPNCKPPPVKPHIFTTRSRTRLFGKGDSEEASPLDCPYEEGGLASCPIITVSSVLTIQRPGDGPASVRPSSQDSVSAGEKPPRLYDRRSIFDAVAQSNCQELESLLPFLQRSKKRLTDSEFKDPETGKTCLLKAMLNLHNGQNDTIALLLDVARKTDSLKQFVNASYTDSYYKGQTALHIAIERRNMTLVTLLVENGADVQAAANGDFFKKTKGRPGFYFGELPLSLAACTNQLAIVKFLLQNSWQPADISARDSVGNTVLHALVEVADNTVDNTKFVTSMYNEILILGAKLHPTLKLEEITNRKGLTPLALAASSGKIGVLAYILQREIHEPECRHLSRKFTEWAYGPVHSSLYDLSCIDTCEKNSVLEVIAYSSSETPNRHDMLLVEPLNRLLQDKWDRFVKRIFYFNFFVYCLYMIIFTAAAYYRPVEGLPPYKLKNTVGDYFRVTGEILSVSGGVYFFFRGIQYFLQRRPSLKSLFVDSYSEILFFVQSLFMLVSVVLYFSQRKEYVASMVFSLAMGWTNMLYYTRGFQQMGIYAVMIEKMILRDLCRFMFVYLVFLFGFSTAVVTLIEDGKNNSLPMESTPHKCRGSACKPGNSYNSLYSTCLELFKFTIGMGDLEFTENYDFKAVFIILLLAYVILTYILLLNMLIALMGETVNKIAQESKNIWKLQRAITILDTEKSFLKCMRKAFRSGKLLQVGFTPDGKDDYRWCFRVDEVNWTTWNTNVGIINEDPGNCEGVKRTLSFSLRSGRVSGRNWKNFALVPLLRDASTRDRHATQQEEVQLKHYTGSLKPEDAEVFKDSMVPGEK
The next assay has as its system T3, AgOr65.
T3 construct: gene Or65; with AgOrco
As to the kind of experiment: calcium mobilization concentration response in AgOrco+AgOr65 HEK cells; patch clamp. The class given is cell-based, Anopheles gambiae.

Turning to `CCn1c(SCC(=O)N2c3ccccc3Sc3ccccc32)nnc1-c1ccco1` [VU0183254, 10-({[4-ethyl-5-(2-furyl)-4H-1,2,4-triazol-3-yl]thio}acetyl)-10H-phenothiazine], the “%” value on HsOrco was 63.9±2.2%. In addition, the half-inhibitory concentration (IC50) at AgOrco [1] is 12.6 µM. Regarding `CCn1c(SCC(=O)Nc2ccc(Br)cc2C)nnc1-c1cccnc1` [VU0450667, N-(4-bromo-2-methylphenyl)-2-((4-ethyl-5-(pyridin-3-yl)-4H-1,2,4-triazol-3-yl)thio)acetamide], the half-inhibitory concentration (IC50) at AgOrco [2] is 1580 µM. For the compound `COc1cc(CNC(=O)CCCC/C=C/C(C)C)ccc1O` [capsaicin], the “whole-cell patch clamp in HEK cells, 10 μM capsaicin” value on TRPV1 is reported as “VU0183254 did not affect the macroscopic currents induced by the natural TRPV1 ligand capsaicin”.

For the compound `C=CCc1ccc(O)c(OC)c1` [eugenol], in the assay on AgOr65, the EC50 is given as −6.69+/−.03 log M.

The term IC50 denotes the concentration needed to halve the response being measured.
